In patent US20080279791A1, “Use of Isoeugenol Methyl Ester as an Agent Against Bad Breath” (SYMRISE GMBH & CO. KG, priority 2004, published 2008):
≈ marks a conversion by molar mass, not a printed value.

Experiments:
Assay type in all cases: cell-based
fresh morning saliva = test: In-vitro test to reduce bad breath (medium inoculated with saliva, incubated, sniffed by panel)
Description: A sterile liquid medium inoculated with fresh morning saliva is incubated for a few days at 37° C. and then sniffed by a panel of testers.
As a control for the tests, Triclosan® (5-chloro-2-(2,4-dichlorophenoxy)phenol) was added to inoculated samples in a concentration of 0.05%.

Escherichia coli = test: Minimum inhibiting concentration, serial-dilution test
Description: (§1) The minimum inhibiting concentration (MIC) of isoeugenol methyl ether was determined in a serial-dilution test against various bacteria.

Fusobacterium nucleatum = test: as above
Description: as §1

Porphyromonas gingivalis = test: as above
Description: as §1

Prevotella intermedia = test: as above
Description: as §1

Pseudomonas aeruginosa = test: as above
Description: as §1

Staphylococcus aureus = test: as above
Description: as §1

Streptococcus mutans = test: as above
Description: as §1

Veilonella parvula = test: as above
Description: as §1

[1] = test system: total number of bacteria in the samples of saliva; test: Total number of bacteria in samples of saliva; conditions: concentration of 1000 ppm

**Q.** `CC=Cc1ccc(OC)c(OC)c1` (racemic) [isoeugenol methyl ether, 1,2-dimethoxy-4-propenyl benzene] was tested. Which “odour after the incubation period” value (fresh morning saliva; 0.01% added to inoculated samples) did it give?
**A.** no odour

**Q.** And the “odour at sensory assessment” value (fresh morning saliva; 0.05% added to the inoculated medium just one hour before the sensory assessment)?
**A.** an unpleasant mixed odour of bad breath and a faint isoeugenol methyl ether note

**Q.** What about the “odour after the incubation period” value (fresh morning saliva; concentrations of significantly less than 0.01%) of the same compound?
**A.** a changed characteristic odour or a mixed odour was discernible in some cases

**Q.** What about the minimum effective concentration (fresh morning saliva; no odour after incubation of inoculated samples) of the same compound?
**A.** 0.01%

**Q.** And the MIC (Escherichia coli)?
**A.** > 1000 µg/mL

**Q.** What about the Type (Escherichia coli) of the same compound?
**A.** No action up to 1000 ppm

**Q.** What about the MIC (Fusobacterium nucleatum) of the same compound?
**A.** 250 µg/mL (≈ 1400 µM)

**Q.** What about the Type (Fusobacterium nucleatum; 250 ppm) of the same compound?
**A.** bacteriostatic action

**Q.** What about the MIC (Porphyromonas gingivalis) of the same compound?
**A.** 500 µg/mL (≈ 2810 µM)

**Q.** And the Type of action (Porphyromonas gingivalis; 500 ppm)?
**A.** effectiveness

**Q.** What about the MIC (Prevotella intermedia) of the same compound?
**A.** 500 µg/mL (≈ 2810 µM)

**Q.** What about the Type (Prevotella intermedia; 500 ppm) of the same compound?
**A.** bactericidal action

**Q.** What about the MIC (Pseudomonas aeruginosa) of the same compound?
**A.** > 1000 µg/mL

**Q.** And the Type (Pseudomonas aeruginosa)?
**A.** No action up to 1000 ppm

**Q.** What about the MIC (Staphylococcus aureus) of the same compound?
**A.** > 1000 µg/mL

**Q.** And the Type (Staphylococcus aureus)?
**A.** No action up to 1000 ppm

**Q.** What about the MIC (Streptococcus mutans) of the same compound?
**A.** > 1000 µg/mL

**Q.** And the Type (Streptococcus mutans)?
**A.** No action up to 1000 ppm

**Q.** And the MIC (Veilonella parvula)?
**A.** 250 µg/mL (≈ 1400 µM)

**Q.** What about the Type (Veilonella parvula; Veilonella parvula, 250 ppm) of the same compound?
**A.** bacteriostatic action

**Q.** What about the “reduction of the total number of bacteria in saliva samples” value [1] of the same compound?
**A.** no significant reduction

**Q.** Which “odour after the incubation period” value (fresh morning saliva; 0.05% added to inoculated samples) does the source give for `Oc1cc(Cl)ccc1Oc1ccc(Cl)cc1Cl` [Triclosan®, 5-chloro-2-(2,4-dichlorophenoxy)phenol, reference compound] here?
**A.** the same faint odour of medium as the uninoculated samples
